In US8232407B2, “Nitrogenous heterocyclic compounds with insecticidal activity, and the preparation and use thereof” (East China University of Science and Technology, priority 2008, dated 2012):

What was measured:
Aphis craccivoral = experiment: Insecticidal activities to aphids, immersion method; format: in vivo; conditions: in vivo
Method: (1): Insecticidal Activities to Aphids
Aphis (Aphis craccivoral), which belongs to Homoptera and has a piercing-sucking mouthpart, is a common insect for agricultural plant. Aphis craccivoral was tested by immersion method.
Procedure: exactly weighed various samples were independently added to N,N-dimethylformamide to form 10 g/L stock solutions. The stock solutions were diluted with 0.2 mL/L aqueous Triton X-100 solution to a concentration of 500 ppm. After stably sucking on bean sprout, the wingless adult aphis together with bean sprout were dipped into 500 ppm dilution, taken out after 5 seconds, and the excess dilution was sucked off with bibulous paper. The treated wingless adult aphis was incubated in clean vessel at a constant temperature of 23° C. Each concentration was repeated for 3 times and the control group was treated with 0.2mL/L aqueous Triton X-100 solution. The number of killed aphis was counted after 24 hours and the mortality was to calculated according to the following formula:
(§1) Mortality (%)=(the number of the survival aphis in control group−the number of the survival aphis in the treatment group)/the number of the survival aphis in control group×100%

Nilaparvata lugens = experiment: Insecticidal activities to plant hopper, spraying method; format: in vivo; conditions: in vivo
Method: as §1
(2): Insecticidal Activities to Plant hopper
Plant hopper (Nilaparvata lugens), which belongs to Homoptera and has a piercing-sucking mouthpart, is a common insect for agricultural plant. Nilaparvata lugens was tested by spraying method.
Procedure: the test compound was exactly formulated with acetone to form solutions having concentrations of 500, 250, 100, 50, 25, 12.5, 6.25, 3.13, 1.57 and 0.79 ppm, respectively. Aqueous acetone solution was used as control. Each treatment was repeated for 3 tumblers (3 times). Two ml of solution was sprayed uniformly to each tumbler with a mini manual sprayer. 10 insects were introduced to every basin 6 hours before spraying. Three series of experiments were conducted. The number of killed insects was counted after 24 hours to calculate the mortality according to the above mentioned formula.

Row | Compound | Aphis craccivoral Mortality (%) 500 ppm (Aphis craccivoral) [%] | Nilaparvata lugens Mortality (%) 500 ppm (Nilaparvata lugens) [%]
1 | CN=C(NCc1ccc(Cl)nc1)C(=Cc1ccoc1)[N+](=O)[O-] [Compound 152] | 67 | 64
2 | CN=C(NCc1ccc(Cl)nc1)C(=Cc1ccc([N+](=O)[O-])o1)[N+](=O)[O-] [Compound 153] | 56 | 87
3 | CN=C(NCc1ccc(Cl)nc1)C(=Cc1ccc(Cl)o1)[N+](=O)[O-] [Compound 154] | 52 | 65
4 | CN=C(NCc1ccc(Cl)nc1)C(=Cc1ccc(Br)o1)[N+](=O)[O-] [Compound 155] | 67 | 36
5 | CN=C(NCc1ccc(Cl)nc1)C(=Cc1cccs1)[N+](=O)[O-] [Compound 156] | 89 | 90
6 | CN=C(NCc1ccc(Cl)nc1)C(=Cc1ccsc1)[N+](=O)[O-] [Compound 157] | 100 | 97
7 | CN=C(NCc1ccc(Cl)nc1)C(=Cc1ccc([N+](=O)[O-])s1)[N+](=O)[O-] [Compound 158] | 43 | 43
8 | CN=C(NCc1ccc(Cl)nc1)C(=Cc1ccc(Cl)s1)[N+](=O)[O-] [Compound 159] | 55 | 67
9 | CN=C(C(=Cc1ccco1)[N+](=O)[O-])N(C)Cc1ccc(Cl)nc1 [Compound 161] | 100 | 65
10 | CN=C(C(=Cc1ccoc1)[N+](=O)[O-])N(C)Cc1ccc(Cl)nc1 [Compound 162] | 100 | 100
11 | CN=C(C(=Cc1ccc([N+](=O)[O-])o1)[N+](=O)[O-])N(C)Cc1ccc(Cl)nc1 [Compound 163] | 100 | 100
12 | CN=C(C(=Cc1ccc(Cl)o1)[N+](=O)[O-])N(C)Cc1ccc(Cl)nc1 [Compound 164] | 100 | 100
13 | CN=C(C(=Cc1ccc(Br)o1)[N+](=O)[O-])N(C)Cc1ccc(Cl)nc1 [Compound 165] | 100 | 100
14 | CN=C(C(=Cc1cccs1)[N+](=O)[O-])N(C)Cc1ccc(Cl)nc1 [Compound 166] | 98 | 100
15 | CN=C(C(=Cc1ccsc1)[N+](=O)[O-])N(C)Cc1ccc(Cl)nc1 [Compound 167] | 100 | 100
16 | CN=C(C(=Cc1ccc([N+](=O)[O-])s1)[N+](=O)[O-])N(C)Cc1ccc(Cl)nc1 [Compound 168] | 80 | 90
17 | CN=C(C(=Cc1ccc(Cl)s1)[N+](=O)[O-])N(C)Cc1ccc(Cl)nc1 [Compound 169] | 76 | 67
18 | CN=C(C(=Cc1ccc[nH]1)[N+](=O)[O-])N(C)Cc1ccc(Cl)nc1 [Compound 170] | 89 | 34
19 | CCN=C(C(=Cc1ccoc1)[N+](=O)[O-])N(C)Cc1ccc(Cl)nc1 [Compound 171] | 93 | 100
20 | CCN=C(C(=Cc1ccc([N+](=O)[O-])o1)[N+](=O)[O-])N(C)Cc1ccc(Cl)nc1 [Compound 172] | 96 | 100
21 | CCN=C(C(=Cc1ccc(Cl)o1)[N+](=O)[O-])N(C)Cc1ccc(Cl)nc1 [Compound 173] | 87 | 85
22 | CCN=C(C(=Cc1ccc(Br)o1)[N+](=O)[O-])N(C)Cc1ccc(Cl)nc1 [Compound 174] | 100 | 100
23 | CCN=C(C(=Cc1cccs1)[N+](=O)[O-])N(C)Cc1ccc(Cl)nc1 [Compound 175] | 100 | 100
24 | CCN=C(C(=Cc1ccc([N+](=O)[O-])s1)[N+](=O)[O-])N(C)Cc1ccc(Cl)nc1 [Compound 176] | 86 | 100
25 | CCN=C(C(=Cc1ccc(Cl)s1)[N+](=O)[O-])N(C)Cc1ccc(Cl)nc1 [Compound 177] | 87 | 100

Row | Compound | Aphis craccivoral Mortality (%) 500 ppm (Aphis craccivoral) [%] | Nilaparvata lugens Mortality (%) 500 ppm (Nilaparvata lugens) [%]
26 | CCN=C(C(=Cc1ccc[nH]1)[N+](=O)[O-])N(C)Cc1ccc(Cl)nc1 [Compound 178] | 100 | 100
27 | CCN(Cc1ccc(Cl)nc1)C(=NC)C(=Cc1ccco1)[N+](=O)[O-] [Compound 179] | 100 | 100
28 | CCN(Cc1ccc(Cl)nc1)C(=NC)C(=Cc1ccoc1)[N+](=O)[O-] [Compound 180] | 100 | 100
29 | CCN(Cc1ccc(Cl)nc1)C(=NC)C(=Cc1ccc([N+](=O)[O-])o1)[N+](=O)[O-] [Compound 181] | 100 | 100
30 | CCN(Cc1ccc(Cl)nc1)C(=NC)C(=Cc1ccc(Cl)o1)[N+](=O)[O-] [Compound 182] | 100 | 100
31 | CCN(Cc1ccc(Cl)nc1)C(=NC)C(=Cc1ccc(Br)o1)[N+](=O)[O-] [Compound 183] | 100 | 100
32 | CCN(Cc1ccc(Cl)nc1)C(=NC)C(=Cc1cccs1)[N+](=O)[O-] [Compound 184] | 98 | 100
33 | CCN(Cc1ccc(Cl)nc1)C(=NC)C(=Cc1ccsc1)[N+](=O)[O-] [Compound 185] | 100 | 100
34 | CCN(Cc1ccc(Cl)nc1)C(=NC)C(=Cc1ccc([N+](=O)[O-])s1)[N+](=O)[O-] [Compound 186] | 100 | 100
35 | CCN(Cc1ccc(Cl)nc1)C(=NC)C(=Cc1ccc(Cl)s1)[N+](=O)[O-] [Compound 187] | 100 | 100
36 | CCN(Cc1ccc(Cl)nc1)C(=NC)C(=Cc1ccc[nH]1)[N+](=O)[O-] [Compound 188] | 100 | 100
37 | CCN=C(C(=Cc1ccco1)[N+](=O)[O-])N(CC)Cc1ccc(Cl)nc1 [Compound 189] | 86 | 100
38 | CCN=C(C(=Cc1ccoc1)[N+](=O)[O-])N(CC)Cc1ccc(Cl)nc1 [Compound 190] | 87 | 100
39 | CCN=C(C(=Cc1ccc([N+](=O)[O-])o1)[N+](=O)[O-])N(CC)Cc1ccc(Cl)nc1 [Compound 191] | 95 | 100
40 | CCN=C(C(=Cc1ccc(Cl)o1)[N+](=O)[O-])N(CC)Cc1ccc(Cl)nc1 [Compound 192] | 97 | 100
41 | CCN=C(C(=Cc1ccc(Br)o1)[N+](=O)[O-])N(CC)Cc1ccc(Cl)nc1 [Compound 193] | 89 | 100
42 | CN=C(C(=C(C)c1ccc[nH]1)[N+](=O)[O-])N(C)Cc1ccc(Cl)nc1 [Compound 194] | 98 | 100
43 | CCN(Cc1ccc(Cl)nc1)C(=NC)C(=C(C)c1ccco1)[N+](=O)[O-] [Compound 195] | 100 | 
44 | CCN(Cc1ccc(Cl)nc1)C(=NC)C(=C(C)c1ccoc1)[N+](=O)[O-] [Compound 196] | 100 | 100
45 | CCN(Cc1ccc(Cl)nc1)C(=NC)C(=C(C)c1ccc([N+](=O)[O-])o1)[N+](=O)[O-] [Compound 197] | 98 | 100
46 | CCN(Cc1ccc(Cl)nc1)C(=NC)C(=C(C)c1ccc(Cl)o1)[N+](=O)[O-] [Compound 198] | 86 | 100
47 | CCN(Cc1ccc(Cl)nc1)C(=NC)C(=C(C)c1ccc(Br)o1)[N+](=O)[O-] [Compound 199] | 84 | 100
48 | CCN(Cc1ccc(Cl)nc1)C(=NC)C(=C(C)c1cccs1)[N+](=O)[O-] [Compound 200] | 100 | 100
49 | CCN(Cc1ccc(Cl)nc1)C(=NC)C(=C(C)c1ccsc1)[N+](=O)[O-] [Compound 201] | 100 | 100
